From article PMC6754304 (Cell, 2019)

Molecular target: S. cerevisiae HSP90 (HSP82) (Saccharomyces cerevisiae, UniProt P02829)
Sequence (P02829 whole entry): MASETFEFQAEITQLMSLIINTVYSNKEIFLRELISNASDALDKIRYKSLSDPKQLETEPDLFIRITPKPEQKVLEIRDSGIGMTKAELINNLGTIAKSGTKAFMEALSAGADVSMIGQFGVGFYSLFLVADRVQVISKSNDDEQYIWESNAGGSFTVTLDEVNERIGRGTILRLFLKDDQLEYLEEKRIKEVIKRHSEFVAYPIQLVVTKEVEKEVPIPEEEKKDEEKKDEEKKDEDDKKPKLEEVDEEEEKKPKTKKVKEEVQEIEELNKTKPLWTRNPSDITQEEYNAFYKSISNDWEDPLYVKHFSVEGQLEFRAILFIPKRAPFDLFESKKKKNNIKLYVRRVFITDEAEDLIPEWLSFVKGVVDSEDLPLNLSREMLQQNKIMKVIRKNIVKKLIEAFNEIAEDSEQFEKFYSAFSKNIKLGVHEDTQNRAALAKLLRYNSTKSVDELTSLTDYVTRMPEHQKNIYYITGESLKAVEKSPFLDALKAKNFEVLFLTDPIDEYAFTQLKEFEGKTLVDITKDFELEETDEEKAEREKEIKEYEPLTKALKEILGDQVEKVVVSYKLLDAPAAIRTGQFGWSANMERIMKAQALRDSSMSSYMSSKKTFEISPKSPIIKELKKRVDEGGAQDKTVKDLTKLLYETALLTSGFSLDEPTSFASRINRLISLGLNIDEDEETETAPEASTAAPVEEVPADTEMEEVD

Structure (SMILES): Nc1ncnc2c1ncn2[C@@H]1O[C@H](COP(=O)(O)OP(=O)(O)OP(=O)(O)O)[C@@H](O)[C@H]1O [ATP]
- ATPase activity: assayed by measuring free phosphate release from ATP using the Malachite Green method
